Source: patent US20070254319A1, “IDENTIFICATION OF A CONS[…] CANCER STEM CELL” (University of Pittsburgh - Of the Commonwealth System of …, priority 2006, published 2007)

What was measured:
[1] = test system: K562-G185 cells (ABCB1/MDR1 transfectant); test: Hoechst 33342 efflux (side population, SP) in MDR1-transfected K562-G185 cells with and without inhibitors; type: cell-based, human; details: CD117- cells; Ho33342 8 microM and R123 0.13 microM, 90 min
Experimental: (§1) Cells were stained with anti-CD117 and incubated for 90 min in the presence of Ho33342 (8 microM, ˜5 microg/mL) and R123 (0.13 microM) with and without inhibitors. PI was added immediately before acquisition on the MoFlo flow cytometer in order to eliminate dead cells. Events were gated to exclude cell clusters and dead cells. The side population (SP) phenotype (blue gate) and R123 excluding cells (single parameter histogram left of the dashed line) were measured on CD117− (top panels) and CD117+ (bottom panels).
(§2) Here, the SP cells (within the blue gate in the left plots) is color evented blue, whereas SP negative cells are shown in gray.
(§3) Simultaneous measurement of R123 and Ho33342 dye efflux. […] Two cell lines were used, the parent line K562, which has a small subpopulation of CD117+ cells which constitutively express ABCG2 (BCRP1), and the ABCB1 (MDR1) transfectant line K562-G185 (39) (FIG. 9). G185 cells were maintained in vincristine (100 ng/mL) to select against ABCB1 negative cells.

[2] = test system: parental K562 cells (native ABCG2); test: Hoechst 33342 efflux (side population, SP) in parental K562 cells with and without inhibitors; type: cell-based, human
Experimental: as §1, §2, §3

ABCG2 (BCRP) = test: Hoechst 33342 / R123 efflux (SP phenotype) in freshly isolated therapy naive non-small cell lung tumor cells; type: cell-based; details: human, probe Hoechst 33342; inhibitor 10 microM; coincubation with Hoechst 33342 8 microM and R123 0.13 microM, 90 minutes at 37° C.
Experimental: Antibody stained suspended tumor cells were incubated simultaneously with the ABCG2/ABCB1 substrate Hoechst 33342 (8 microM) plus the ABCB1 substrate rhodamine 123 (R123, 0.13 microM) for 90 minutes at 37° C. Propidium iodide (PI, 10 microg/mL) was added immediately before sample acquisition. All events were gated on PI excluding (live), non-hematopoietic singlets. Five million events were collected. This basic experimental design has been repeated, with modifications, on 10 samples from untreated breast, ovarian, gastric and lung tumors with consistent results.
SP (top panels) and non-SP cells (bottom panels) were further characterized: A proportion of SP cells also excluded the ABCB1 substrate dye R123. These accounted for 29% of the SP cells (color-evented red in the dot plots) and accounted for almost all of the cells with low forward and side light scatter consistent with a resting morphology (FIG. 5). […] A significant proportion of both SP and non-SP cells expressed CD90, often in combination with epithelial specific antigen, HEA.

SMILES | effect on the side population (SP), in words [1] | effect on Ho33342 transport, in words ([2]; CD117+ population of parental K562 cells) | inhibition of the native SP phenotype, in words ([2]; CD117- cells, native SP 1.42% of cells, Ho33342 8 microM, 90 min) | inhibition at 90 min, 10 microM (ABCG2 (BCRP))
CC[C@]1(O)C[C@H]2CN(CCc3c([nH]c4ccccc34)[C@@](C(=O)OC)(c3cc4c(cc3OC)N(C=O)[C@H]3[C@@](O)(C(=O)OC)[C@H](OC(C)=O)[C@]5(CC)C=CCN6CC[C@]43[C@@H]65)C2)C1 [vincristine] | not affected |  |  | 
COc1ccc2c3c([nH]c2c1)[C@H](C=C(C)C)N1C(=O)[C@@H]2CCCN2C(=O)[C@@H]1C3 [fumitremorgin] | not affected | abrogates | equally inhibited | 75%
